5 compounds from patent US20090270391A1, “THIENOPYRIDINE DERIVATIVE, OR QUINOLINE DERIVATIVE, OR QUINAZOLINE DERIVATIVE, HAVING c-MET AUTOPHOSPHORYLATION INHIBITING POTENCY” (Kirin Pharma Kabushiki Kaisha, priority 2005, published 2009) can be followed below.

By IC50 is commonly meant the point on the concentration scale where inhibition reaches its midpoint. Higher therefore signals weaker potency.

The subject of assay [1] is Human gastric cancer cell line MKN 45. In words: Tumor growth inhibitory activity against human gastric cancer cell line MKN 45 in nude mice. It counts as in vivo. The following applies: oral once a day. How it is done: Human gastric cancer cell line MKN 45 (available from Riken) was transplanted into nude mice. […] The test compound suspended in 0.5% methylcellulose was orally administered once a day for 9 days.
Only 0.5% methylcellulose was administered to the control group in the same manner as in the test groups. The tumor growth inhibition rate (TGIR) was calculated as follows: The tumor growth inhibition rate (TGIR)=(1−TX/CX)×100 wherein CX represents the volume of tumor at day X for the control group and TX represents the volume of tumor for test compound administration groups, when the tumor volume at the day of the start of the administration was presumed to be 1.

For assay [2], the target named is T1, c-Met (Homo sapiens, UniProt P08581). As to the kind of experiment: Measurement (2) of inhibitory activity against c-Met autophosphorylation using ELISA method (MKN45 cells). It counts as cell-based. Conditions: c-Met phosphorylation in MKN45 cells, no HGF. Set-up: endogenous in cells; host or cells: MKN45. How it is done: Human gastric cancer cell line MKN45 (available from Riken) was cultured in an RPMI 1640 medium containing 10% fetal calf serum (purchased from GIBCO BRL) within a 5% carbon dioxide incubator until 50 to 90% confluent. The harvested cells were inoculated into wells, containing an RPMI medium containing 0.1% fetal calf serum, in a 96-well flat-bottom plate in an amount of 2×10^4 per well, followed by cultivation at 37° C. overnight. The medium was then replaced by a fresh RPMI medium containing 0.1% fetal calf serum. The test compound dissolved in dimethyl sulfoxide was added to each well, and the cultivation was continued at 37° C. for additional one hr. The medium was removed, the cells were washed with phosphate buffered physiological saline (pH 7.4), and 50 μl of a solubilization buffer (20 mM HEPES (pH 7.4), 150 mM NaCl, 0.2%/0 Triton X-100, 100, 10% glycerol, 5 mM sodium orthovanadylate, 5 mM disodium ethylenediaminetetraacetate, and 2 mM Na4P2O7) was then added thereto. The mixture was shaken at 4° C. for 2 hr to prepare a cell extract.
Separately, phosphate buffered physiological saline (50 μl, pH 7.4) containing 5 μg/ml anti-phospho-tyrosine antibody (PY20; purchased from Transduction Laboratories) was added to a microplate for ELISA (Maxisorp; purchased from NUNC), followed by standing at 4° C. overnight to form a solid phase. After washing of the plate, 300 μl of a blocking solution was added, followed by standing at room temperature for 2 hr to perform blocking. After washing, the whole quantity of the cell extract was transferred, and the plate was then allowed to stand at 4° C. overnight. After washing, an anti-HGF receptor antibody (h-Met (C-12), purchased from Santa Cruz Biotechnology) was allowed to react at room temperature for one hr, and, after washing, a peroxidase-labeled anti-rabbit Ig antibody (purchased from Amersham) was allowed to react at room temperature for one hr. After washing, a chromophoric substrate for peroxidase (purchased from Sumitomo Bakelite Co., Ltd.) was added thereto to initiate a reaction. After a suitable level of color development, a reaction termination solution was added to stop the reaction, and the absorbance at 450 nm was measured with a microplate reader. The c-Met phosphorylation activity for each well was determined by presuming the absorbance without the addition of the test compound to be 100% c-Met phosphorylation activity and the absorbance with the addition of a largely excessive amount of positive control to be 0% c-Met phosphorylation activity. The concentration of the test compound was varied on several levels, the inhibition rate of c-Met-phosphorylation was determined for each case, and the concentration of the test compound necessary for inhibiting 50% of c-Met phosphorylation (IC50) was calculated.
In general terms: ELISA stands for enzyme-linked immunosorbent assay.
Target sequence in this assay (P08581 25-1390): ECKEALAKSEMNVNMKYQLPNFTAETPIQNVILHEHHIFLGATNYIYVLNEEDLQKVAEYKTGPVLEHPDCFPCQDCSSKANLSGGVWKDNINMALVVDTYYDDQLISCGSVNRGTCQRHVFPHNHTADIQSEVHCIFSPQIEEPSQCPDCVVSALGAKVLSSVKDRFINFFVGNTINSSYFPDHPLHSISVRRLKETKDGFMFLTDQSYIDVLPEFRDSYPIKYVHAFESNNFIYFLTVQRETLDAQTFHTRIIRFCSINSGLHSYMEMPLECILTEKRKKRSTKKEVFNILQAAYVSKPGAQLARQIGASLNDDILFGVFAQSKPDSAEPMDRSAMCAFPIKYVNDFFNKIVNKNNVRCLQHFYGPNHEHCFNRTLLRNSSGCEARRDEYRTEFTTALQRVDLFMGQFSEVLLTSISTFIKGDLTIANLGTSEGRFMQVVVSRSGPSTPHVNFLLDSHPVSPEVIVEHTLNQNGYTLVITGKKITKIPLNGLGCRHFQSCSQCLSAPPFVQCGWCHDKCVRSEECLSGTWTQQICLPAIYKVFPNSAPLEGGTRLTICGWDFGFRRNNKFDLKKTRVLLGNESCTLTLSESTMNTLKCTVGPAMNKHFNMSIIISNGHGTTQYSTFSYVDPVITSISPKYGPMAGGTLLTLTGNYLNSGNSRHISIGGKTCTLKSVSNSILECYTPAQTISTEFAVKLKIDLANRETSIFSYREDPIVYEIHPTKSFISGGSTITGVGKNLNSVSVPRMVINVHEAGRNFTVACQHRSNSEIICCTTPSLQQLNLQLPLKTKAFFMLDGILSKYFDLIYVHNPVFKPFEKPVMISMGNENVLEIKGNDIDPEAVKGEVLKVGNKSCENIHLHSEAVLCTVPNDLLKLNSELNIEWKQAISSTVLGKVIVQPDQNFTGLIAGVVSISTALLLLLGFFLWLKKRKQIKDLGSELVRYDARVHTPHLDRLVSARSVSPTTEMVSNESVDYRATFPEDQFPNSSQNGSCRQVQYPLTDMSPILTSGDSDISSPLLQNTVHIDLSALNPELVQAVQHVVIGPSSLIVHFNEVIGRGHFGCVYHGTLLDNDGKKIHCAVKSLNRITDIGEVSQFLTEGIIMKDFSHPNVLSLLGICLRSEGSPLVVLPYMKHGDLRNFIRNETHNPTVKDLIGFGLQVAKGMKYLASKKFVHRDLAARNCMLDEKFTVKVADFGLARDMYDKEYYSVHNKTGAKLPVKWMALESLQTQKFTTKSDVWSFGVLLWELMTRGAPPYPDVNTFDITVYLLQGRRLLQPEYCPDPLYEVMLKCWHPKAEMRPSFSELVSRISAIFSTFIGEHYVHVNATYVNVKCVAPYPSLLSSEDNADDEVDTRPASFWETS

Assay [3] has as its target T1, c-Met. As to the kind of experiment: Measurement of human c-Met enzyme inhibitory activity (ELISA, Poly Glu:Tyr). It counts as biochemical. Set-up: a part (955 to 1368aa) around human c-Met kinase domain; GST; made in house; host or cells: SF9 insect cells (baculovirus). The following applies: human c-Met kinase domain (955 to 1368aa), ATP 10 μM. The text has this:
cDNA coding for a part (955 to 1368aa) around human c-Met kinase domain was integrated into a pFastBac vector (Invitrogen) with a GST tag inserted therein, followed by transformation into DH10Bac to give Bacmid DNA which was then introduced into SF9 cells (GIBCO). Infection with a virus liquid was repeated five times, and SF9 cells were then broken, followed by purification using a GSH column to give a c-Met kinase active protein.
Poly Glu: Tyr=4:1 (SIGMA) was coated onto a 96-well immunoplate (442404, NALGE NUNC International K.K.). Kinase buffer (50 mM HEPES (pH 7.5), 25 mM NaCl, 0.01 mM Na3VO4, 0.01% BSA), a test compound, and the kinase protein were added, and the mixture was incubated for 10 min. ATP (10 μM, SIGMA) was then added, and a reaction was allowed to proceed for 10 min. The plate was washed three times with PBST and was reacted with a primary antibody PY-20 (BD-610000, B.D. Bioscience) and a secondary antibody GAM (NA-9310V, Abersham) each at room temperature for one hr. The plate was washed with PBST, color development was then carried out with SUMILON (ML-1120T, Sumitomo Bakelite Co., Ltd.), and phosphorylated tyrosine was quantitatively determined by measuring the absorbance at 450 nm. IC50 was calculated based on a concentration difference curve for the test compound by presuming the absorbance of the wells without the addition of ATP to be 100% inhibition and the absorbance of the wells with the addition of the medium for the test compound and ATP to be 0% inhibition.
Target sequence in this assay (P08581 955-1368): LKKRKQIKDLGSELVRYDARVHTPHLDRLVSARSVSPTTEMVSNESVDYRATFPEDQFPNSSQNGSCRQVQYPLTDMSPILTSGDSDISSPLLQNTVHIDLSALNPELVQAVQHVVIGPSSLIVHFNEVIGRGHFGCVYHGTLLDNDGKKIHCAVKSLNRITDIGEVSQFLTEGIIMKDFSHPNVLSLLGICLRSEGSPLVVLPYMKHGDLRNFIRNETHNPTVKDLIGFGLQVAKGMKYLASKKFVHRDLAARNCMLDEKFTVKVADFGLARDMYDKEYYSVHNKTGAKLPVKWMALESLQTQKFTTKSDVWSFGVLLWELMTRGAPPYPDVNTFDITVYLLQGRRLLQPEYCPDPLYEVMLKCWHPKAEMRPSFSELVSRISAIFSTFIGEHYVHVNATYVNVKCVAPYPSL

For assay [4], the target named is T1, c-Met. In words: c-Met autophosphorylation inhibitory activity (general statement).
Target sequence in this assay (P08581 25-1390): as the sequence (P08581 25-1390) above
In assay [5] the target is KDR (Homo sapiens, UniProt P35968). In words: KDR autophosphorylation inhibitory activity (general statement).
Sequence of KDR (P35968 20-1356): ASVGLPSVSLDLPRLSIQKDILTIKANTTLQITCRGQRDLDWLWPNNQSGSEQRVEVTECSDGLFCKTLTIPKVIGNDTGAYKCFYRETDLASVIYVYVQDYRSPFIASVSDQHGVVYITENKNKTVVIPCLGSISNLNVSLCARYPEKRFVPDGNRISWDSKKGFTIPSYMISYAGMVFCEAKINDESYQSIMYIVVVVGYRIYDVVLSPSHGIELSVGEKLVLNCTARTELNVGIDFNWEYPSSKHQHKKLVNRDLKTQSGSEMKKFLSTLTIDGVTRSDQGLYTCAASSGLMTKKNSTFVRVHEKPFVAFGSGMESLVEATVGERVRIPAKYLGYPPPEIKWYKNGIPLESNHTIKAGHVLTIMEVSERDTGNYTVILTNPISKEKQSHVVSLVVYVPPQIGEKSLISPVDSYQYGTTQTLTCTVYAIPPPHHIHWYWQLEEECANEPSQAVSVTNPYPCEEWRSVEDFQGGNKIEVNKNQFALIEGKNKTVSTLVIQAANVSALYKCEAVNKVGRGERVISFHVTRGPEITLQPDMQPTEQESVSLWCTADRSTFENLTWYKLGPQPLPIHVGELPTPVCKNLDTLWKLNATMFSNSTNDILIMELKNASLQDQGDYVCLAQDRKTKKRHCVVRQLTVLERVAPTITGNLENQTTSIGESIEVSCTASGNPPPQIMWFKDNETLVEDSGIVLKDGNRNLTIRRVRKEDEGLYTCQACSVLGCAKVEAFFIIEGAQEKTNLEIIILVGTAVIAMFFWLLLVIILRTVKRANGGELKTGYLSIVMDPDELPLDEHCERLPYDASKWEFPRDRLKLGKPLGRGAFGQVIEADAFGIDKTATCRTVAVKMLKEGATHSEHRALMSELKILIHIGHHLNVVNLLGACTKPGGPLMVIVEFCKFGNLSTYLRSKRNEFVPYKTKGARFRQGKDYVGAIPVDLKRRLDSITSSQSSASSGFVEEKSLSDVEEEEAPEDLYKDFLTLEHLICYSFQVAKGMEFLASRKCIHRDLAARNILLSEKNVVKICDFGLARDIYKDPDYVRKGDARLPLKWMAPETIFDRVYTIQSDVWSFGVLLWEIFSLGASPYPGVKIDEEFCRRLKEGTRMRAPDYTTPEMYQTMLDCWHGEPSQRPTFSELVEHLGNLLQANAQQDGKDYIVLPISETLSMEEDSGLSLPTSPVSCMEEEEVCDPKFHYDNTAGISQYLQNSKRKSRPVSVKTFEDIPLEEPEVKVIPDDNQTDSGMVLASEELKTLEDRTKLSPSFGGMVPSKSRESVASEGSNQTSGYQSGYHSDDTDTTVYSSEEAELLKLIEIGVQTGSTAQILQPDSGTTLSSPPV

Consider `COc1cc2nccc(Oc3ccc(NC(=O)NC(=O)Cn4ncc5ccccc54)cc3F)c2cc1OC` [Example 14, N-4-[(6,7-Dimethoxy-4-quinolyl)oxy]-3-fluorophenyl-N′-[2-(1H-1-indazolyl)acetyl]urea], for which, in assay [1] (10th day), the “TGIR (tumor growth inhibition rate)” value came to 42.6%. In addition, the results for the IC50 in assay [2] and in assay [3] were 22.3 nM and 12.5 nM, respectively.

`COc1cc2nccc(Oc3ccc(NC(=O)NC(=O)Cn4ccc5ccccc54)cc3F)c2cc1OC` [Example 16, N-4-[(6,7-Dimethoxy-4-quinolyl)oxy]-3-fluorophenyl-N′-[2-(1H-1-indolyl)acetyl]urea]: half-maximal inhibition in assay [2] (IC50) required 35.9 nM.

On to `Cn1ccnc1-c1cc2nccc(Oc3ccc(NC(=S)NC(=O)Cc4ccc(F)cc4)cc3Cl)c2s1` [Example 1, N-(3-Chloro-4-{[2-(1-methyl-1H-2-imidazolyl)thieno[3,2-b]pyridin-7-yl]oxy}phenyl)-N-[2-(4-fluorophenyl)-acetyl]thiourea], for which the “TGIR (tumor growth inhibition rate)” value in assay [1] (9th day) was determined as 63.8%. Further, the figures for the IC50 in assay [2] and in assay [3] were 32.8 nM and 3.2 nM, respectively.

For `COc1cc(Oc2ccnc3cc(OCCCN4CCOCC4)c(OC)cc23)ccc1NC(=S)NC(=O)Cc1ccccc1` [Compound B, N-{2-methoxy-4-[6-methoxy-7-(3-morpholinopropoxy)-4-quinolyl]oxyphenyl}-N′-(2-phenylacetyl)thiourea], the “c-Met autophosphorylation inhibitory activity” value in assay [4] is on record as “high”. Further, the “KDR autophosphorylation inhibitory activity” value in assay [5] is on record as “low”.

On to `COc1cc(Oc2ccnc3cc(OC)c(OC)cc23)ccc1NC(=S)NC(=O)Cn1ncc2ccccc21` [Example 15, N-4-[(6,7-Dimethoxy-4-quinolyl)oxy]-2-methoxyphenyl-N′-[2-(1 H-1-indazolyl)acetyl]thiourea], for which the IC50 in assay [2] was 13.2 nM; in assay [3], 9.6 nM.
